# Results as given in patent US20100292316A1, “IMPROVED THERAPEUTIC METHODS AND COMPOSITIONS COMPRISING CHROMAN RING COMPOUNDS” (Research Development Foundation, priority 2007, published 2010).
# Columns and labels:
# Akt = assay: Western blot of phosphorylated Akt (Ser 473) and total Akt in prostate cancer cells; format: cell-based, human
# Excerpt: Previous studies have shown that α-TEA is an effective inducer of apoptosis in human prostate cancer cells (Anderson et al., 2004). Dose- and time-dependent pro-apoptotic effects of α-TEA in prostate cancer cells are mediated by Fas/FADD/caspase-8/tBid and Fas/Daxx/Ask1/JNK1/2/Bax, leading to activation of caspases-9 and -3. Thus, the Akt inhibiting activity of α-TEA was investigated in prostate cancer cells. Since phosphorylation of Akt at Ser 473 is required for its full activation (Cheng et al., 2005), we examined the phosphorylation status of Akt using an antibody that specifically recognizes Akt phosphorylated at Ser 473 in all three Akt isoforms (Upstate Cell Signaling Solutions (Charlottesville, Va.)). α-TEA decreased the levels of the phosphorylated forms of Akt. […] As verification that the decreases in phosphorylation status of Akt correlated with decreased kinase activity, the phosphorylation status of GSK3β, a downstream Akt target, was evaluated following α-TEA treatments. […] GAPDH levels were assayed with each immunoblot assay as a protein loading control.
# Since Akt has three isoforms; namely, Akt1, Akt2, and Akt3, it was of interest to determine if α-TEA treatment was reducing the phosphorylated status of all three isoforms. Following α-TEA treatment the three Akt isoforms were immunoprecipitated with isoform specific antibodies, followed by western immunoblotting analyses using antibody specific for phospho-Akt. The protein levels of the isoforms were also determined. […] Treatment diminished the phosphorylation levels in all three Akt isoforms in both LNCaP and PC-3-GFP cells.
# 1×10^7 LNCaP or PC-3 3-GFP cells were treated with α-TEA and lysed in RIPA lysis buffer in the presence of protease inhibitors. […] Beads were washed 4 times with PBS and the proteins were released from the beads by boiling in Laemmli buffer for 5 min. Immunoprecipitated proteins were identified by SDS-PAGE followed by western immunoblot analyses.
# Since Akt is activated, at least in part, by PI3K, we were interested to see if blockage of PI3K activity using the PI3K inhibitor LY294002 (Calbiochem-Novabiochem Corp. (San Diego, Calif.)) (Vlahos et al., 1994) would augment the apoptotic response induced by α-TEA.
# [1] = system: human MDA-MB-435 breast cancer cells; conditions: preclinical xenograft model transplanted with human MDA-MB-435 breast cancer cells (Zhang et al., 2004); cited from earlier work
# FOXO1 = FOXO1 phosphorylation and nuclear localization (Western blot, cell fractionation); format: cell-based, human; conditions: LNCaP and PC-3-GFP cells
# Excerpt: The transcription factor FOXO1 is a downstream substrate of Akt in which phosphorylation by Akt prevents its pro-apoptotic actions (Woods et al., 2002). Since previous studies of α-TEA's mechanism of action in inducing apoptosis in cancer cells show a role for Fas signaling (Shun et al., 2004) and since FOXO1 has been proposed to be a transcriptional regulator of FasL (Ciechomska et al., 2003), it was of interest to investigate the effects of α-TEA on FOXO1 phosphorylation status and cellular location. […] FOXO1 is normally localized in the nucleus (Woods et al., 2002) and phosphorylation of FOXO1 by Akt at Ser 256 promotes the relocation of FOXO1 from the nucleus to the cytosol, thereby inhibiting its transcriptional activity (Greer et al., 2005). As expected, control LNCaP and PC-3-GFP cells had high levels of FOXO1 in the cytosol reflecting the constitutively activated state of Akt in these cells (FIG. 7B).
# Plasmids encoding wild type FOXO1 (Flag-tagged FOXO1) and constitutively active FOXO1 (Flag-tagged FOXO1AAA) were generous gifts from Dr. Kun-Liang Guan (Tang et al., 1999). FOXO1 and phospho-FOXO1 antibodies were purchased from Cell Signaling Technology (Beverly, Mass.).
# Preparation of cytoplasmic and nuclear extracts for the foregoing experiments was carried-out using methods that are well known in the art. […]
compound,measurement,setting,value
Cc1c(C)c2c(c(C)c1OCC(=O)O)CC[C@@](C)(CCC[C@H](C)CCC[C@H](C)CCCC(C)C)O2 [α-TEA],"phosphorylation levels of Akt1, Akt2, Akt3 isoforms (immunoprecipitation)","Akt; LNCaP and PC-3-GFP cells, 40 μM α-TEA, 24 h",markedly reduced
same,effect on level of Akt protein expression,"Akt; LNCaP and PC-3-GFP cells, any time point",no major effect
same,inhibition of levels of endogenously phosphorylated Akt,"Akt; LNCaP cells, 10 μM α-TEA and/or 10 μM LY294002",40%
same,reduction of phosphorylated forms of Akt,"Akt; LNCaP cells, 40 μM α-TEA, 24 h",90%
same,inhibition of levels of endogenously phosphorylated Akt,"Akt; PC-3-GFP cells, 20 μM α-TEA and/or 10 μM LY294002",70%
same,reduction of phosphorylated forms of Akt,"Akt; PC-3-GFP cells, 40 μM α-TEA, 24 h",70%
same,blood vessel density,[1],significantly reduce blood vessel density
same,FOXO1 nuclear localization,FOXO1; 40 μM α-TEA for 24 h,increase in FOXO1 levels in the nucleus
same,phospho-FOXO1 levels,"FOXO1; 40 μM α-TEA, 3-24 h, total protein unchanged",reduced in a time-dependent manner
